# Measured values as given in PMC6112376, “Comprehensive Analyses and Prioritization of Tox21 10K Chemicals Affecting Mitochondrial Function by in-Depth Mechanistic Studies” (Environmental Health Perspectives, 2018).
# Like-named read-outs stand apart in the source and are kept apart here.
# Key:
# [1] = tested on: hNSC; test: MMP assay in human neural stem cells (hNSC); assay type: cell-based; details: Homo sapiens, Neural stem cell; 1 h treatment; fresh re-sourced stocks; mean±SD of three experiments; read-out: hNSC IC50 (MMP)
# [2] = tested on: HepG2 cells; test: ROS-Glo hydrogen peroxide (ROS) assay; assay type: cell-based, human; details: Homo sapiens, HepG2; 2 h treatment; mean±SD of three experiments; read-out: ROS (HepG2) EC50
# [3] = tested on: HepG2 cells; test: Intracellular ATP content (cell viability) assay; assay type: cell-based, human; details: 40 h treatment, mean±SD of three experiments; for IC50: Homo sapiens, HepG2
# [4] = tested on: p53 (p53-bla HCT-116 cells); test: p53 β-lactamase reporter gene assay; assay type: cell-based, human; details: 16 h incubation; mean±SD of three experiments
# [5] = tested on: Nrf2/ARE (ARE-bla HepG2 cells); test: ARE β-lactamase reporter gene assay; assay type: cell-based, human; details: Homo sapiens, HepG2; 16 h incubation; mean±SD of three experiments; read-out: ARE (HepG2) EC50
# [6] = tested on: isolated rat liver mitochondria; test: Oxygen consumption, Clark-type oxygen electrode; assay type: biochemical; details: for I-ADP, % of control (O2 consumption rate) / I-sub, % of control (O2 consumption rate) / II-ADP, % of control (O2 consumption rate) / II-sub, % of control (O2 consumption rate): 100 µM, isolated rat liver mitochondria; for I-ADP, % of control (O2 consumption rate): glutamate/malate driven state 3 respiration; for I-sub, % of control (O2 consumption rate): glutamate/malate driven state 4 respiration; for II-ADP, % of control (O2 consumption rate): succinate-driven state 3 respiration; for II-sub, % of control (O2 consumption rate): succinate-driven state 4 respiration; for Potential Mechanism: mitochondrial respiration in isolated rat liver mitochondria, Clark type oxygen electrode, over tested concentrations
# [7] = tested on: HeLa cells expressing YFP-Parkin; test: Parkin translocation assay; assay type: cell-based, human; details: HeLa cells stably expressing YFP-Parkin; treated for 2 h
# [8] = tested on: HepG2 cells; details: cited from earlier work; for IC50: read-out: MMP assays IC50 (µM) qHTS-HepG2
# [9] = tested on: HepG2 cells; test: cells; details: Homo sapiens; for Emax: HepG2, read-out: MMP assays efficacy (%) HepG2
# [10] = tested on: Caenorhabditis elegans strain PE255; test: In vivo C. elegans ATP status assay; details: for minimal effective concentration: Caenorhabditis elegans, read-out: LEC LUM: lowest effect concentration for luminescence, a measure of nematode ATP content
# [11] = tested on: rat primary hepatocytes; test: MMP assay in rat primary hepatocytes; details: for Rat hepatocytes (efficacy) (MMP): % of positive control, mean±SD of three experiments; for IC50: Rattus norvegicus, Hepatocyte; for MMP assays efficacy (%) Rat Hepatocytes: mean ± SD of three experiments
# [12] = tested on: Caenorhabditis elegans (Bristol N2); test: C. elegans larval development and growth assay; details: for minimal effective concentration: Caenorhabditis elegans, read-out: LEC EXT: lowest effect concentration for extinction, a measure of nematode size
# [13] = HepG2, 1 h, read-out: HepG2 IC50 Galactose (MMP)
# [14] = HepG2, 1 h, read-out: HepG2 IC50 Glucose (MMP)
# [15] = HepG2, read-out: MMP assays IC50 (µM) HepG2
# [16] = 1 h, read-out: Rat hepatocytes IC50 (MMP)
# [17] = read-out: MMP assays IC50 (µM) Rat Hepatocytes
smiles,measurement,setting,value
NNc1nc(-c2ccc(N)cc2)cs1 [2-Hydrazino-4-(4-aminophenyl) thiazole],IC50,[1],1.76 ± 0.57 µM
same,EC50,[2],25.4 ± 3.24 µM
same,IC50,"[3]; 5 mM glucose, read-out: ATP (HepG2, glucose) IC50",59.5 ± 23.5 µM
same,IC50,"[3]; 10 mM galactose, read-out: ATP (HepG2, galactose) IC50",60.8 ± 6.99 µM
same,p53 (HCT-116) EC50,[4],Inactive
same,EC50,[5],10.5 ± 8.1 µM
same,"I-ADP, % of control (O2 consumption rate)",[6],105 (55.7) % of control
same,"I-sub, % of control (O2 consumption rate)",[6],109 (14.6) % of control
same,"II-ADP, % of control (O2 consumption rate)",[6],101 (68.1) % of control
same,"II-sub, % of control (O2 consumption rate)",[6],98 (21.3) % of control
same,Potential Mechanism,[6],Inactive
same,Parkin recruitment,[7],Inactive
same,MMP assays efficacy (%) qHTS-HepG2,[8],-83±12%
same,IC50,[8],0.06 ± 0.02 µM
same,IC50,[9]; [13],18.5 ± 2.55 µM
same,IC50,[9]; [14],15.3 ± 1.76 µM
same,IC50,[9]; [15],0.4 µM
same,Emax,[9],85%
same,LUM: mean difference in luminescence (ATP content) relative to plate controls,[10]; 0.5 µM,0.02471
same,LUM: mean difference in luminescence (ATP content) relative to plate controls,[10]; 1 µM,0.06159
same,LUM: mean difference in luminescence (ATP content) relative to plate controls,[10]; 5 µM,0.05233
same,LUM: mean difference in luminescence (ATP content) relative to plate controls,[10]; 10 µM,0.08412
same,LUM: mean difference in luminescence (ATP content) relative to plate controls,[10]; 25 µM,0.4284
same,LUM: mean difference in luminescence (ATP content) relative to plate controls,[10]; 50 µM,0.3261
same,LUM: mean difference in luminescence (ATP content) relative to plate controls,[10]; 75 µM,0.5564
same,LUM: mean difference in luminescence (ATP content) relative to plate controls,[10]; 100 µM,0.6002
same,minimal effective concentration,[10],25 µM
same,Rat hepatocytes (efficacy) (MMP),[11],−50.5±1.77%
same,IC50,[11]; [16],19.8 ± 11.5 µM
same,IC50,[11]; [17],3.55 ± 3.86 µM
same,MMP assays efficacy (%) Rat Hepatocytes,[11],-67±14%
same,EXT: mean difference in nematode size relative to plate controls,[12]; 0.5 µM,0.05389
same,EXT: mean difference in nematode size relative to plate controls,[12]; 1 µM,0.002943
same,EXT: mean difference in nematode size relative to plate controls,[12]; 5 µM,-0.00605
same,EXT: mean difference in nematode size relative to plate controls,[12]; 10 µM,0.1893
same,EXT: mean difference in nematode size relative to plate controls,[12]; 25 µM,0.2089
same,EXT: mean difference in nematode size relative to plate controls,[12]; 50 µM,0.1347
same,EXT: mean difference in nematode size relative to plate controls,[12]; 75 µM,0.3557
same,EXT: mean difference in nematode size relative to plate controls,[12]; 100 µM,0.3701
same,minimal effective concentration,[12],25 µM
Nc1ccc2c(c1)C(=O)c1ccccc1C2=O [2-Aminoanthraquinone],IC50,[1],1.8 ± 0.83 µM
same,EC50,[2],4.72 ± 0.8 µM
same,"ATP (HepG2, glucose) IC50",[3]; 5 mM glucose,Inactive
same,"ATP (HepG2, galactose) IC50",[3]; 10 mM galactose,Inactive
same,p53 (HCT-116) EC50,[4],Inactive
same,EC50,[5],3.93 ± 0.89 µM
same,"I-ADP, % of control (O2 consumption rate)",[6],101 (53.8) % of control
same,"I-sub, % of control (O2 consumption rate)",[6],98 (13.2) % of control
same,"II-ADP, % of control (O2 consumption rate)",[6],124 (83.8) % of control
same,"II-sub, % of control (O2 consumption rate)",[6],107 (23.2) % of control
same,Potential Mechanism,[6],Inactive
same,Parkin recruitment,[7],Inactive
same,MMP assays efficacy (%) qHTS-HepG2,[8],-85±11%
same,IC50,[8],0.51 ± 0.29 µM
same,IC50,[9]; [13],8.98 ± 1.62 µM
same,IC50,[9]; [14],6.58 ± 0.9 µM
same,IC50,[9]; [15],1.26 µM
same,Emax,[9],85%
same,LUM: mean difference in luminescence (ATP content) relative to plate controls,[10]; 0.5 µM,0.5241
same,LUM: mean difference in luminescence (ATP content) relative to plate controls,[10]; 1 µM,1.069
same,LUM: mean difference in luminescence (ATP content) relative to plate controls,[10]; 5 µM,1.958
same,LUM: mean difference in luminescence (ATP content) relative to plate controls,[10]; 10 µM,1.846
same,LUM: mean difference in luminescence (ATP content) relative to plate controls,[10]; 25 µM,1.929
same,LUM: mean difference in luminescence (ATP content) relative to plate controls,[10]; 50 µM,1.555
same,LUM: mean difference in luminescence (ATP content) relative to plate controls,[10]; 75 µM,1.569
same,LUM: mean difference in luminescence (ATP content) relative to plate controls,[10]; 100 µM,1.98
same,"LEC (lowest effect concentration), ATP assay",[10]; 24 h exposure,≤ 10 µM
same,minimal effective concentration,[10],0.5 µM
same,Rat hepatocytes (efficacy) (MMP),[11],−58.3±7.52%
same,IC50,[11]; [16],9.63 ± 3.17 µM
same,IC50,[11]; [17],3.57 ± 2.61 µM
same,MMP assays efficacy (%) Rat Hepatocytes,[11],-91±30%
same,EXT: mean difference in nematode size relative to plate controls,[12]; 0.5 µM,0.000738
same,EXT: mean difference in nematode size relative to plate controls,[12]; 1 µM,0.7865
same,EXT: mean difference in nematode size relative to plate controls,[12]; 5 µM,0.06113
same,EXT: mean difference in nematode size relative to plate controls,[12]; 10 µM,0.09116
same,EXT: mean difference in nematode size relative to plate controls,[12]; 25 µM,0.03934
same,EXT: mean difference in nematode size relative to plate controls,[12]; 50 µM,0.4385
same,EXT: mean difference in nematode size relative to plate controls,[12]; 75 µM,0.2071
same,EXT: mean difference in nematode size relative to plate controls,[12]; 100 µM,0.2541
same,minimal effective concentration,[12],100 µM
